Test results taken from the NIST ThermoML archive (doi:10.1016/j.jct.2016.06.004).

How the values were obtained:
[1] = Ring tensiometer
[2] = xn = mol fraction of the nth substance listed; settings: Ring tensiometer

C[S+](C)[O-] [dimethyl sulfoxide]
[1]
Settings | surface tension liquid-gas [mN/m]
298.15 K | 42.43
308.15 K | 41.3
318.15 K | 40.17
328.15 K | 39.08

C[S+](C)[O-] [dimethyl sulfoxide] + CC(C)O
surface tension liquid-gas [mN/m], [2]
Settings | 298.15 K | 308.15 K | 318.15 K | 328.15 K
x2 = 0 | 42.43 | 41.3 | 40.17 | 39.08
x2 = 0.044 | 39.17 | 38.58 | 37.9 | 36.91
x2 = 0.085 | 36.42 | 35.88 | 34.99 | 34.12
x2 = 0.157 | 33.83 | 32.83 | 32.05 | 31.15
x2 = 0.245 | 30.89 | 30.21 | 29.55 | 28.39
x2 = 0.338 | 28.56 | 27.7 | 27.02 | 26
x2 = 0.441 | 26.67 | 25.88 | 25.19 | 24.1
x2 = 0.537 | 25.15 | 24.46 | 23.87 | 22.79
x2 = 0.619 | 24.19 | 23.39 | 22.81 | 21.74
x2 = 0.676 | 23.19 | 22.84 | 22.06 | 21.08
x2 = 0.719 | 23.03 | 22.48 | 21.67 | 20.72
x2 = 0.751 | 22.84 | 22.21 | 21.43 | 20.45
x2 = 0.86 | 22 | 21.21 | 20.51 | 19.59

C[S+](C)[O-] [dimethyl sulfoxide] + CCO
surface tension liquid-gas [mN/m], [2]
Settings | 298.15 K | 308.15 K | 318.15 K | 328.15 K
x2 = 0 | 42.43 | 41.3 | 40.17 | 39.08
x2 = 0.087 | 39.25 | 38.32 | 37.35 | 36.37
x2 = 0.174 | 36.69 | 35.75 | 34.88 | 33.99
x2 = 0.261 | 34.4 | 33.6 | 32.69 | 31.87
x2 = 0.348 | 32.29 | 31.5 | 30.73 | 29.99
x2 = 0.435 | 30.48 | 29.71 | 28.95 | 28.22
x2 = 0.522 | 28.84 | 28.08 | 27.33 | 26.61
x2 = 0.609 | 27.34 | 26.58 | 25.83 | 25.21
x2 = 0.696 | 26.04 | 25.22 | 24.44 | 23.64
x2 = 0.783 | 24.63 | 23.91 | 23.14 | 22.36
x2 = 0.87 | 23.4 | 22.7 | 21.91 | 21.07
